Results on 7 compounds are retold here after patent US8431583B2, “Use of purine derivatives for the manufacture of a medicament” (Centre National de la Recherche Scientifique, priority 2007, dated 2013).

The subject of one series is B-CLL. The settings on record: B-CLL patients; cited from earlier work.
A further series concerns the target CK1δ/e. Nature of the series: Kinase assay CK1. The settings on record: read-out: IC50 CK1; 15 μM ATP, 30° C., buffer A.
For another series, the target named is T1, DYRK1A (Homo sapiens, UniProt Q13627).
T1 construct: host or cells: E. coli
Nature of the series: Kinase assay DYRK1A. The note with it: 15 μM ATP, 30° C. It counts as biochemical. The procedure:
(§1) Assaying is carried out with 1 mg histone H1/ml, in the presence of 15 μm [γ-^33P]ATP (3000 Ci/mmol; 10 mCi/ml) in a final volume of 30 μl. After incubating at 30° C. for 30 min, 25 μl aliquots of supernatant were deposited on 2.5×3 cm pieces of Whatman P8 phosphocellulose papers and then, 20 sec. later, the filters were washed 5 times in a solution of 10 ml of phosphoric acid/liter. The filters are subsequently counted in the presence of 1 ml of ACS (Amersham).
DYRK1A (human, recombinant, expressed in E. coli cells) is assayed like CDK1/cyclin B.
(§2) The mean inhibitory concentration IC50 values were calculated from the dose/response curves and are listed in μM in the following table I.

A short description of another series: Solubility in water. It is filed as physicochemical.
Series [1] concerns B2 lymphocytes originating from patients. Briefly: Induction of cell death of B chronic lymphoid leukemia cells (B2 lymphocytes) from patients. The settings on record: B2 lymphocytes from CLL patients, MTS reduction / LDH release. It is filed as cell-based, human. How it is done:
The B2 lymphocytes are lymphocytes involved in […] chronic lymphoid leukemia.
Cell viability is determined by the reduction of 3-(4,5-dimethylthiazol-2-yl)-5-(3-carboxymethoxyphenyl)-2-(4-sulfophenyl)-2H-tetrazolium (MTS).
Cell death is determined by the measurement of the level of the activity of the lactate dehydrogenase (LDH) released during lysis of the cells. The two processes are described in detail in “Ribas J. and Boix J. Cell differentiation, caspase inhibition, and macromolecular synthesis blockage, but not BCL-2 or BCL-XL proteins protect SH-SY5Y cells from apoptosis triggered by two CDK inhibitory drugs.
In table 2, the values shown are the mean inhibitory concentration IC50 values, expressed in μM.

For a further series, the target named is Erk2 (Homo sapiens, UniProt P28482). Briefly: Kinase assay Erk2. The note with it: 15 μM ATP, 30° C. It is filed as biochemical. The procedure: as §2
A further series has as its target T2, CDK9/cyclin T (Homo sapiens, UniProt P50750).
T2 construct: host or cells: insect cells
Briefly: Kinase assay CDK9/cyclin T. It counts as biochemical. The settings on record: 15 μM ATP, 30° C., pRB fragment substrate. How it is done: as §1, §2

The target in a further series is GSK-3 α/β. Briefly: Kinase assay GSK-3α/β. It is filed as biochemical, pig. The settings on record: 15 μM ATP, 30° C., buffer A, GS-1 substrate. How it is done: After incubating at 30° C. for 30 min, 25 μl aliquots of supernatant were deposited on 2.5×3 cm pieces of Whatman P8 phosphocellulose papers and then, 20 sec. later, the filters were washed 5 times in a solution of 10 ml of phosphoric acid/liter. The filters are subsequently counted in the presence of 1 ml of ACS (Amersham).
as §2

T2 sequence (P50750 whole entry): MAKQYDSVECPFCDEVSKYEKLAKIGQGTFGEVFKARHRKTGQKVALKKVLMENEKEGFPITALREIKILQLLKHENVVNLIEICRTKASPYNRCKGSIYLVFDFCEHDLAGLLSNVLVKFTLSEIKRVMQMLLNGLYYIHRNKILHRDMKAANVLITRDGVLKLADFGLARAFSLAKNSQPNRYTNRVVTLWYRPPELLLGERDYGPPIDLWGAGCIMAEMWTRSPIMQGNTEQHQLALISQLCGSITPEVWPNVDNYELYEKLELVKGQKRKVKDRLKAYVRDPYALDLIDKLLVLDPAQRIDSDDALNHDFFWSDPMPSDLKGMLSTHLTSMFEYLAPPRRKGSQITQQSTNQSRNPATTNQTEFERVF
T2 sequence (O60563 whole entry partner): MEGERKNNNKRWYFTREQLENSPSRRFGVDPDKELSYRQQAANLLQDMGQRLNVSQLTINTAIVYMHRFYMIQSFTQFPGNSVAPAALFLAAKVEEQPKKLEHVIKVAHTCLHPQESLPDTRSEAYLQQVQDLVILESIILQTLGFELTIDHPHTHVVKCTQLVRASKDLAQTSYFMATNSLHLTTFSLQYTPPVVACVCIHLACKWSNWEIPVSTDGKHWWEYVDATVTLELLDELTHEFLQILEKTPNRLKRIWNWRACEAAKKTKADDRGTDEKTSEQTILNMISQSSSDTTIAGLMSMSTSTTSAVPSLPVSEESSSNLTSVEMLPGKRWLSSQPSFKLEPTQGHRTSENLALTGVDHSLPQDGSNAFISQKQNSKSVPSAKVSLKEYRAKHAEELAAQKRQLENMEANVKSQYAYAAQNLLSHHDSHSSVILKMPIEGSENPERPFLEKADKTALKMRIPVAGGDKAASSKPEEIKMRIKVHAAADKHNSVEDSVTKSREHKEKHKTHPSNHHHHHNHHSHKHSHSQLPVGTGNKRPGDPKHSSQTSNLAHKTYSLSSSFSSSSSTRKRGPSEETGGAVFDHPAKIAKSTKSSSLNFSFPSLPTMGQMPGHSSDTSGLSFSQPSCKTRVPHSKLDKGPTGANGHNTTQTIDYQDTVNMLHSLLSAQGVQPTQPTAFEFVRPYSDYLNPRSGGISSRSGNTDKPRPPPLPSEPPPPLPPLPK
Sequence of Erk2 (P28482 whole entry, species assumed): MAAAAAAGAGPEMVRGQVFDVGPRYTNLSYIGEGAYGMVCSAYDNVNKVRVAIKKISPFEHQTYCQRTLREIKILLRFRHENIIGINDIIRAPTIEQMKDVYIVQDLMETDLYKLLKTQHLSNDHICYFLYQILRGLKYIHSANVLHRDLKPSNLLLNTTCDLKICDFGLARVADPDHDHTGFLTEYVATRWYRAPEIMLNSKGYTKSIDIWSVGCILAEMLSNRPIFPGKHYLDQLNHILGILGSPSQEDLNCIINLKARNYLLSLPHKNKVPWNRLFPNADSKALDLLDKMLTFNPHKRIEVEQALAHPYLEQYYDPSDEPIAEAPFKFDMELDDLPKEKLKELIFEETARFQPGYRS

For the compound “alemtuzumab: therapeutic antibody against an antigen expressed on leukocytes and leukemic B lymphocytes of CLL”, the hematologic response in the series with B-CLL is recorded as 33%.
For `CC[C@@H](CO)Nc1nc(NCc2ccc(-c3ccccn3)cc2)c2ncn(C(C)C)c2n1` [Compound of formula Ib], the IC50 – broadly, the concentration that gives 50% inhibition – on CK1δ/e is 610 nM; on DYRK1A, 900 nM; in series [1] (Homo sapiens, Lymphocyte), 90 nM; on Erk2, 2100 nM; on CDK9/cyclin T, 110 nM; against GSK-3 α/β, not below 30000 nM. In the series “Solubility in water”, the solubility (usually how much of the substance goes into solution per volume) was found to be 3.3 µg/mL.
`CC(C)[C@H](CO)Nc1nc(NCc2ccc(-c3ccccn3)cc2)c2ncn(C(C)C)c2n1` [Compound of formula Ie] returned an IC50 in series [1] (Homo sapiens, Lymphocyte) of 510 nM.
`CCC(CO)Nc1nc(NCc2ccc(-c3ccccc3)cc2)c2ncn(C(C)C)c2n1` (stereo not drawn) [Compound of formula Ic]: the solubility in the series “Solubility in water” was found to be 0.5 µg/mL. The compound also yielded an IC50 in series [1] (Homo sapiens, Lymphocyte) of 1250 nM.
`CC(C)n1cnc2c(NCc3ccc(-c4ccccn4)cc3)nc(NC(CO)CO)nc21` [Compound of formula Id, 2-(1,3-Dihydroxyprop-2-ylamino)-6-[4-(2-pyridyl)phenylmethylamino]-9-isopropylpurine] registered an IC50 in series [1] (Homo sapiens, Lymphocyte) of 250 nM.
As for `CC(C)[C@H](CO)Nc1nc(NCc2ccc(-c3ccccn3)cc2)c2ncn(C(C)C)c2n1` [Compound of formula If], in series [1], half-maximal inhibition (IC50) required 380 nM.
With `CC[C@H](CO)Nc1nc(NCc2ccc(-c3ccccn3)cc2)c2ncn(C(C)C)c2n1` [Compound of formula Ia], the IC50 on CK1δ/e was found to be 400 nM; against DYRK1A, 3600 nM; in series [1] (Homo sapiens, Lymphocyte) it was 200 nM; on Erk2 it was 3600 nM; at CDK9/cyclin T it was 180 nM.
